From article PMC9975351 (Frontiers in Pharmacology, 2023)

Key:
CYP2E1 = CYP2E1 (Homo sapiens, UniProt P05181); test: CYP cocktail inhibition assay in pooled HLMs, CYP2E1; settings: substrate cocktail
Experimental: The drug–drug interaction potential was evaluated using a CYP cocktail assay that involved microsomal incubation and NADPH, as described elsewhere ([Lee et al., 2012]). […] The first reactions were initiated by NADPH addition, and each mixture was incubated in a shaking water bath at 37°C for 30 min. The final incubation was performed for 10 min with a total volume of 200 µL by adding substrates (tolbutamide (set B) as a CYP2C9 selective substrate, midazolam (set A) and testosterone (set B) as CYP3A4 selective substrates) and NADPH. The reaction was stopped and quenched by adding 200 µL of ice-cold acetonitrile containing 50 nM CBZ as internal standard, then centrifuged at 3,000 x g for 20 min. The supernatants were injected in LC-QTOF system. IC50 shift values were calculated as the ratio of the IC50 value obtained after pre-incubation without NADPH divided by the IC50 value obtained after 30 min incubation with NADPH.
The LC-QTOF system consisted of an Exion AD LC device (AB Sciex, Framingham, MA, United States) and a TripleTOF 6,600 + system (AB Sciex) equipped with an IonDrive Turbo V source operated in positive TOF information-dependent acquisition (IDA) MS2 scan mode. The TOF scan dwell time was 50 ms, and the 20 × IDA MS2 scan time was acquired with a 30-ms dwell time. […]

CYP2D6 [1] = test: Metabolic stability in Silensome CYP2D6 (CYP2D6 contribution); assay type: in vitro ADME, human; settings: human
Experimental: (§1) Metabolic stability of GRL 0617 and formation of M1 and M3 were evaluated using Silensome control, Silensome CYP2D6 and Silensome CYP3A4 incubated with 1 or 10 µM GRL 0617 in the presence of NADPH. Other metabolites were detected less than 1% of parent. […] CYP2D6 played an exclusive role in the formation of M2, but the reactions were not saturated in the concentration range used in this study and thus, the calculated Kcat, and Km were out of the experiment condition.
(§2) In addition, the contribution of specific isoform using Silensomes were evaluated, and calculated parameters were shown in Supplemental Figure S4 and Table 4. […] The contribution of specific CYP 3A4 or CYP2D6 was calculated to be 79.6% or 21.8%, respectively, using equation as equation below. Calculated % CYP isoform contribution = CLintcontrol−ClintINH ⁄ CLintcontrol ([Bohnert et al., 2016]).
(§3) incubated in Silensome control, Silensome CYP2D6, and Silensome CYP3A4 with NADPH for 0, 10,
(§4) 15, 30, 45, 60, or 120 min. The remaining percentages of GRL 0617 are expressed as mean ± SD (n=3).
(§5) (1 picture or pasted object on this page, not shown here)

Silensome CYP2D6 = test: as above; assay type: in vitro ADME, human; settings: (CLint control − CLint INH)/CLint control
Experimental: as §1, §2, §3, §4, §5

CYP2D6 [2] = target: CYP2D6 (Homo sapiens, UniProt P10635); assay type: in vitro ADME; set-up: purchased Cypex (Dundee, UK); host or cells: bactosomes (bacterial membranes); settings: 1 µM, 50 pmol/mL recombinant CYP2D6, NADPH, 60 min, vs control
Experimental: Reactions were conducted in triplicate using 0.1 M PPB (pH 7.4) in eight-well tube strips in an 8 × 12 rack. […] The mixture was pre-incubated at 37°C with shaking at approximately 100 rpm for 5 min. Reactions were initiated by the addition of the NADPH-regenerating system and quenched with 200 µL ice-cold acetonitrile containing 50 nM CBZ. The samples were centrifuged at 1,000 × g and 4°C for 20 min, and the supernatants were subjected to LC-QTOF HRMS. […] The reaction was incubated, initiated, terminated, centrifuged then analyzed using the same method described above.
Reaction phenotyping is the identification of isoforms involved in drug metabolism and is important for the decipherment of drug biotransformation pathways and understanding of possible drug-drug interactions. M6, M7, and M8 were also detected in recombinant CYP incubations.

in vitro = in vitro ADME, human
Experimental: as §1, §2, §3, §4, §5

CYP3A4/3A5 = test: Metabolic stability in Silensome CYP3A4 (CYP3A4/3A5 contribution); assay type: in vitro ADME, human; settings: human
Experimental: as §1, §2
(§6) CYP3A4/5 metabolizes various chemicals composed of large, lipophilic molecules with diverse structures, and >50% of all prescribed drugs undergo CYP3A4 metabolism ([Zanger and Schwab, 2013]). CYP3A4-related drug interaction studies are critical for the prediction of drug–drug interactions in the clinic ([Prueksaritanont et al., 2013]). […] Thus, Silensome 3A4 represented contribution of both CYP3A4 and CYP3A5, compared with control Silensome. CYP3A5 expression in the liver differs between Africans/African Americans and Caucasians. […] CYP2D6 is a highly polymorphic gene involved in drug metabolism ([Ingelman-Sundberg et al., 2007]). […] Indeed, CYP2D6 metabolized the naphthalene side ring through hydroxylation, which is not linked to M1–M3 dehydration.
as §3, §4, §5

Silensome CYP3A4/3A5 = test: as above; assay type: in vitro ADME, human; settings: (CLint control − CLint INH)/CLint control
Experimental: as §1, §2, §6, §3, §4, §5

Sequence of CYP2D6 (Homo sapiens, UniProt P10635) (P10635 whole entry): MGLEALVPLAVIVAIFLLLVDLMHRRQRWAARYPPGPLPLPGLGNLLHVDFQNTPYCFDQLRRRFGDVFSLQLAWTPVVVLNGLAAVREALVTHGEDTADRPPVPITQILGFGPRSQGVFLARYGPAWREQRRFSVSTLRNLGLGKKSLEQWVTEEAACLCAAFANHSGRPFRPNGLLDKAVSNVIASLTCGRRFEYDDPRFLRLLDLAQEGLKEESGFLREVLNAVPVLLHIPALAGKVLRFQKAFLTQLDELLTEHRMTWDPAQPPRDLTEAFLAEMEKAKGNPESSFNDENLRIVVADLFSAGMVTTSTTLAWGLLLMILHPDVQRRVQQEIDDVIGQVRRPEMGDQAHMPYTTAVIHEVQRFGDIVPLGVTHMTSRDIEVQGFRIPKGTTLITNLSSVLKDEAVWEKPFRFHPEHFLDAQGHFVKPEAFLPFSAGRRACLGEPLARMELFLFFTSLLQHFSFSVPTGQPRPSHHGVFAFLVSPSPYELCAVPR
Sequence of CYP2E1 (P05181 whole entry): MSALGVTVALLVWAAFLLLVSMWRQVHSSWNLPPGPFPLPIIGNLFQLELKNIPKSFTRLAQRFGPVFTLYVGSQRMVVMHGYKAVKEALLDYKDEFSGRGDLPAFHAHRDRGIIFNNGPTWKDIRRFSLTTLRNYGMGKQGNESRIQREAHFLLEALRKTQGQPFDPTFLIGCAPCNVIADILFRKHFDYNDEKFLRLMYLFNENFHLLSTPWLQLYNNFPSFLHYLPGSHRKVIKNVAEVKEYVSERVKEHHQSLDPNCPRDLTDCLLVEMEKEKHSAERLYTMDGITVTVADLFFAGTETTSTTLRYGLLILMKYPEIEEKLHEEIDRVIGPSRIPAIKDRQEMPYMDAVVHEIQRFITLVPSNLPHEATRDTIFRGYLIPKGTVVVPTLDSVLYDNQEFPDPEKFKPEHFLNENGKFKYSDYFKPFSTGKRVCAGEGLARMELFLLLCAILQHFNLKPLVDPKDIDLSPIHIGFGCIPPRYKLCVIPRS

Question: With `Cc1ccc(N)cc1C(=O)N[C@H](C)c1cccc2ccccc12` [GRL0617, 5-amino-2-methyl-N-[(1R)-1-(1-naphthalenyl)ethyl]benzamide] as the compound, how does the “Concentrations at which CYP2E1 was inhibited” value (CYP2E1) read?
Answer: The value was no less than 50 µM.

Question: And the half-life at 1 µM (CYP2D6 [1])?
Answer: Its half-life at 1 µM is 22.3 min.

Question: And the microsomal CLint at 1 µM (CYP2D6 [1]; Silensome CYP2D6 with NADPH, read-out: Intrinsic clearance (in vitro) Clint)?
Answer: Its microsomal CLint at 1 µM is 31.2 µL/min/mg.

Question: And the “Contribution of CYP2D6 to metabolism” value (Silensome CYP2D6)?
Answer: Its value is 21.8%.

Question: And the GRL0617 level remaining (CYP2D6 [2])?
Answer: Its GRL0617 level remaining is 71.46% ± 3.1%.

Question: And the Contribution (in vitro; Silensome control (reference))?
Answer: The Contribution was 100%.

Question: And the half-life at 1 µM (in vitro; human, microsomes)?
Answer: Its half-life at 1 µM is 17.4 min.

Question: And the microsomal CLint (in vitro; human, microsomes, Silensome control with NADPH, read-out: Intrinsic clearance (in vitro) Clint)?
Answer: Its microsomal CLint is 39.8 µL/min/mg.

Question: What about the half-life at 1 µM (CYP3A4/3A5) of the same compound?
Answer: Its half-life at 1 µM is 85.1 min.

Question: And the microsomal CLint at 1 µM (CYP3A4/3A5; Silensome CYP3A4/3A5 with NADPH, read-out: Intrinsic clearance (in vitro) Clint)?
Answer: Its microsomal CLint at 1 µM is 8.14 µL/min/mg.

Question: And the “Contribution of CYP3A4 (CYP3A4/3A5) to metabolism” value (Silensome CYP3A4/3A5)?
Answer: The value was 79.6%.
